A melting point compilation (Tetko et al.)

Row | SMILES | melting point
1 | O=C1C(C(O)c2ccc(Cl)cc2Cl)C(C(F)(F)F)=NN1c1ccccc1 (configuration not stated) | 249 °C
2 | O=C(O)Cc1cc(F)ccc1F | 125 °C
3 | N#CCCN1CCCCC1 | -6.8 °C
4 | CCOC(=O)c1csc(-c2ccc(F)cc2F)n1 | 50 to 52 °C
5 | CCC(C(=O)O)c1ccc(-c2ccccc2)cc1 (configuration not stated) | 124 °C
6 | c1ccc2c(c1)cc1ccc3c4ccccc4cc4ccc2c1c43 | 317 °C
7 | CN(C)CCCC1(c2ccc(F)cc2)OCc2cc(C#N)ccc21 (configuration not stated) | 182 °C
8 | ClCCN(CCCl)c1ccc2ccccc2c1 | 55 °C
9 | CC(C)(C)C(=O)C1C(=O)c2ccccc2C1=O | 109 °C
10 | CCOc1ccc(-c2nnc3n2NC(c2ccc(Cl)cc2)S3)cc1 (configuration not stated) | 109 °C
11 | COc1ccc(C)cc1 | -32 °C
12 | CCCC1Nn2c(nnc2-c2cccc([N+](=O)[O-])c2)S1 (configuration not stated) | 129 °C
13 | O=c1ccocc1 | 32.5 °C
14 | COc1cc(C)nc(-n2nc(C)cc2OC)n1 | 91 °C
15 | COC(=O)C1CCCc2c1[nH]c1cc(OC)ccc21 (configuration not stated) | 92 °C
16 | O=[N+]([O-])c1ccc(Oc2ccccc2)cc1 | 58 °C
17 | Clc1ncnc2sc3c(c12)CCCC3 | 96 °C
18 | Cc1ccc(COc2ccc(CC#N)cc2)cc1 | 121 to 123 °C
19 | OC1COC(Oc2ccc3cc(Br)ccc3c2)C(O)C1O (configuration not stated) | 190 to 196 °C
20 | O=C1OC(/C=C/c2ccccc2)Cc2ccccc21 (configuration not stated) | 84 °C
21 | O=C1CCc2ccc(F)cc21 | 61 to 63 °C
22 | CC(=NOCc1cccc(C(=O)O)c1)c1ccc(Cl)c(Cl)c1 | 175 to 178 °C
23 | Oc1cc(Br)ccn1 | 203 °C
24 | OCc1ccc2nonc2c1 | 66 to 67 °C
25 | Cc1noc(C)c1C(=O)O | 141 to 142 °C
26 | CCOC(=O)c1nn(-c2cc(-c3ccc(OC)cc3)n[nH]2)c(=N)c(-c2nc3ccccc3s2)c1C | 175 °C

Row | SMILES | melting point
27 | CC1(C)C2CCC1(C)C(C(=O)O)OC2=O (configuration not stated) | 201 °C
28 | CCOc1cccc2c(=O)c(=O)c12 | 128 °C
29 | CCOP(=S)(OCC)SCn1nnc2ccccc2c1=O | 53 °C
30 | O=C(c1cccc([N+](=O)[O-])c1)c1nn(-c2ccccc2)/c(=N\Nc2ccccc2)s1 | 184 °C
31 | O=C1[C@H]2Cc3ccccc3C[C@H]2C(=O)[C@@H]2Cc3ccccc3C[C@H]12 | 224 to 227 °C
32 | CC(=O)N(c1ccc(C)cc1)c1nc(CCl)cs1 | 124 to 125 °C
33 | CSc1nsc(SC)c1C(=O)Nc1ccc(Cl)cc1 | 168 to 170 °C
34 | Cc1cccc(N(C)C(=S)Oc2ccc3c(c2)CCC3)c1 | 94 °C
35 | CC(=O)Nc1cc(Cl)c(F)cc1[N+](=O)[O-] | 111 °C
36 | CC(Cl)C(N)=O (configuration not stated) | 76 to 81 °C
37 | O=C1C=CC(=O)N1Cc1ccccc1 | 69 °C
38 | CC(=O)OC1CCC2(C)C3CCC4=C(CCC4(C)C#CCl)C3CCC2(C)C1 (configuration not stated) | 109 to 110 °C
39 | Cn1ccc(-c2ccc(Br)cc2)n1 | 79.5 to 81 °C
40 | Cc1ccc(S(=O)(=O)c2ncsc2SCC(N)=O)cc1 | 204 to 206 °C
41 | COc1cc(Cc2nccc3cc(OC)c(O)cc23)ccc1O | 209 °C
42 | CCOC(=O)c1cc(C)n(C)n1 | 87 °C
43 | O=C(O)CCC(=O)c1ccc(C2CCCCC2)c(Cl)c1 | 163 °C
44 | O=[N+]([O-])c1ccsc1 | 78.5 °C
45 | CC(C)(C)OC(=O)CN=C(c1ccccc1)c1ccccc1 | 114 °C
46 | Clc1cc(Cl)nc(Cc2ccccc2)n1 | 56 to 57 °C
47 | NC(=O)NN=CC(=O)c1ccc(C(=O)C=NNC(N)=O)c([N+](=O)[O-])c1 | 241 °C
48 | c1ccc(Oc2ccccc2-c2ccccc2)cc1 | 49 °C
49 | Cn1nc(-c2ccccc2)cc1C(=O)O | 186 to 187 °C
50 | Cc1cc(C(=O)O)nn1C | 175 to 178 °C
51 | CC(=O)c1csc2ccc(Br)cc12 | 87 to 90 °C
52 | CC(=O)Nc1ccc(S(=O)(=O)NCCO)cc1 | 126 to 127 °C

Row | SMILES | melting point
53 | O=C(O)c1ccc(N2CCOCC2)nc1 | 256 to 257 °C
54 | CNc1ccccc1C(N)=O | 161 to 163 °C
55 | Cc1ccc(N)cc1NS(C)(=O)=O | 170 to 172 °C
56 | CNC(=O)Oc1cc(C(C)(C)C)cc(C(C)(C)C)c1 | 103 °C
57 | CCOC(=O)c1cc2cc(F)ccc2[nH]1 | 150 °C
58 | CCCCCCN1CC(C(=O)O)CC1=O (configuration not stated) | 42.5 °C
59 | N#CC(F)(Cl)Cl | -110 °C
60 | NC(=O)NN=C(c1cc2ccccc2o1)c1cc2ccccc2o1 | 189 to 190 °C
61 | Nc1c(Cl)cc([N+](=O)[O-])cc1Br | 175 °C
62 | COc1cc2c(c(OC)c1OC)C(=O)[C@]1(OC)C=C[C@H]2N(c2ccccc2)O1 | 114 °C
63 | BrCCCOc1ccc2cc3ccc(OCCCBr)cc3nc2c1 | 142 °C
64 | Cc1cc(Br)cnc1NC(=O)C(C)(C)C | 127 °C
65 | CC1=C(C)C(=O)C(C(CCCCCC(=O)O)c2ccccc2)=C(C)C1=O (configuration not stated) | 128 °C
66 | O=C(Cl)c1ccc2c(c1)C(=O)OC2=O | 68 °C
67 | CCCOC1CCC2C3CC=C4CC5(CCC4(C)C3CCC12C)OCCO5 (configuration not stated) | 213 to 214 °C
68 | ClCc1csc(-c2ccccc2)n1 | 49 to 50 °C
69 | CCC(=O)C1CCCCC1C(C)(C)C(=O)O (configuration not stated) | 115 °C
70 | NC(=O)CC[C@H](NC(=O)OCC1c2ccccc2-c2ccccc21)C(=O)O | 218 to 223 °C
71 | Cn1cccc1-c1nnc(S)n1-c1ccc(Cl)cc1Cl | 252 to 256 °C
72 | COc1ccccc1N/N=C(\C(N)=O)c1nc2ccccc2s1 | 212 °C
73 | CCCCCCCCC(Br)C(=O)O (configuration not stated) | 4 °C
74 | CC1(C)C2CCC1(C)C(O)C2C(c1ccccc1)c1ccccc1 (configuration not stated) | 171 °C
75 | COC(=O)CC(=O)c1cccnc1 | 34 to 42 °C
76 | CCCC1(C)CC(=O)NC1=O (configuration not stated) | 76 to 78 °C
77 | CNCc1c(C)nc2ccccn12 | 73 to 75 °C
78 | CCCCCOc1ccc(-c2ccc(C#N)cc2)cc1 | 48 °C

Row | SMILES | melting point
79 | NC(=O)/C(=N\Nc1ccc(F)cc1)c1nc2ccccc2s1 | 158 °C
80 | COc1ccccc1Nc1[nH]c(=S)nnc1-c1ccccc1 | 241 to 242 °C
81 | O=Cc1cccc2ccnn12 | 85 °C
82 | OCC#CC#CCO | 112 °C
83 | OC1C(Cl)(Cl)CCCC1(Cl)Cl | 55 °C
84 | N#Cc1c(F)cc(Cl)cc1F | 102 °C
85 | CC(O)c1ccccc1C(F)(F)F (configuration not stated) | 38 to 40 °C
86 | O=C1CCN2C(=O)c3ccccc3CC2C1 (configuration not stated) | 126 °C
87 | COC(=O)c1c(C=O)c(C)n(C)c1C | 124 to 127 °C
88 | CC(=O)c1ccc(OCc2ccc(F)cc2)cc1 | 79 to 80 °C
89 | O=C(NCCc1c[nH]cn1)C1=NC=NC1 | 176 °C
90 | O=S(=O)(Cl)c1cc(OCC(F)(F)F)ccc1OCC(F)(F)F | 47 to 50 °C
91 | CCC#CC(=O)O | 50 °C
92 | COc1ccccc1/C=C(\C#N)c1nc2ccccc2n1C | 226 °C
93 | Cc1nn(-c2ccccc2)nc1C(=O)NNC(=S)Nc1ccccc1 | 205 to 206 °C
94 | CN(C)c1ccc(C(c2ccc(N(C)C)cc2)c2ccc(N(C)C)cc2)cc1 | 180 °C
95 | Brc1ccc(Oc2c(Br)cc(Br)cc2Br)cc1 | 134 to 136 °C
96 | CC(=Nc1cccc(N)c1)c1c(O)c2ccccc2n(-c2ccccc2)c1=O | 200 °C
97 | CC1=C(C(=O)OC(C)C)C(c2cccc([N+](=O)[O-])c2)NC(=S)N1 (configuration not stated) | 225 °C
98 | Clc1ncccc1I | 95 °C
99 | O=CN(c1ccccc1)c1ccccc1 | 73.5 °C
100 | Cc1cc(C)c(CCl)cc1CCl | 97 to 99 °C
101 | O=Cc1cc(F)c(F)c(F)c1 | 25.3 °C
102 | COc1ccc(/N=N/c2c(N)nn3c(-c4ccccc4)cc(=O)[nH]c23)cc1 | 278 °C
103 | COc1c(C(=O)O)csc1Br | 155 to 156 °C
104 | O=C(O)c1ccccc1Oc1ccccc1 | 113 °C

Row | SMILES | melting point
105 | Cc1ccc(S(=O)(=O)N2CCCN(S(=O)(=O)c3ccc(C)cc3)CCN(S(=O)(=O)c3ccc(C)cc3)CCC2)cc1 | 238 °C
106 | N#Cc1ccc(O)c([N+](=O)[O-])c1 | 143 to 148 °C
107 | O=C(ON=C(Cc1ccccc1)c1ccccc1)c1ccccc1 | 92 °C
108 | COc1ccccc1NC(N)=S | 156 °C
109 | Oc1ccccc1N1CCCCC1 | 75 °C
110 | CC1(C)C2CCC1(CS(=O)(=O)Cl)C(=O)C2 (configuration not stated) | 66 °C
111 | Cc1cc(C(=O)O)cc(C(=O)O)c1 | 299 °C
112 | COc1cc([N+](=O)[O-])cc(C=O)c1O | 140 °C
113 | O=C(O)CSCCSCC(=O)O | 110 °C
114 | Nc1ccccc1CO | 83.5 °C
115 | CC(O)CN(CC(C)O)CC(C)O (configuration not stated) | 48 to 52 °C
116 | COC1=C(O)C(=O)C(C)=C(O)C1=O | 202 °C
117 | O=C(CBr)OCc1ccc([N+](=O)[O-])cc1 | 50 °C
118 | NNc1nccc(C(F)(F)F)n1 | 100 to 101 °C
119 | CCCc1c(O)ccc(C(C)=O)c1N | 95 to 97 °C
120 | CC1(C)OC(=O)C(=Cc2ccc(-c3ccc([N+](=O)[O-])cc3)o2)C(=O)O1 | 221 °C
121 | COc1cc(OC)cc(C(N)=O)c1 | 144 °C
122 | Cc1ccc2c(ccc3cc4ccccc4cc32)c1 | 156 °C
123 | CC(=O)Oc1cccc([N+](=O)[O-])c1 | 54 °C
124 | O=C(OCC1OC(O)(COC(=O)c2cccnc2)C(OC(=O)c2cccnc2)C1OC(=O)c1cccnc1)c1cccnc1 (configuration not stated) | 141 °C
125 | Cn1c(=O)c(C2=NNC(=O)C2=CNc2cccc3ccccc23)c(O)c2ccccc21 | 292 °C
126 | CC(=O)OCC(=O)C1(O)C(C)CC2C3CCC4=CC(=O)C=CC4(C)C3(F)C(O)CC21C (configuration not stated) | 263 °C
127 | O=C(/C=C/c1ccc(OCC2CO2)cc1)c1ccccc1 (configuration not stated) | 92 °C
